Results reported in ChEMBL document CHEMBL1909046, “DrugMatrix in vitro pharmacology data”.

Experiments:
[1] = DRUGMATRIX: Glutamate, NMDA, Phencyclidine radioligand binding (ligand: [3H] TCP); type: cell membranes, Rattus norvegicus, Wistar, Cerebral cortex, Membrane; conditions: Not Active = under 50% inhibition at 10 µM
[2] = DRUGMATRIX: Sodium/nucleoside co-transporter radioligand binding (ligand: nitrobenzylthioinosine); type: cell membranes, Cavia porcellus, Dunkin-Hartley, Cerebral cortex, Membrane; conditions: Not Active = under 50% inhibition at 10 µM
[3] = target: Substance-P receptor (Homo sapiens, UniProt P25103); type: cell membranes, Membrane; conditions: cho; further: in other assays of this panel Not Active means under 50% inhibition at 10 µM
Chain of Substance-P receptor (P25103 whole entry): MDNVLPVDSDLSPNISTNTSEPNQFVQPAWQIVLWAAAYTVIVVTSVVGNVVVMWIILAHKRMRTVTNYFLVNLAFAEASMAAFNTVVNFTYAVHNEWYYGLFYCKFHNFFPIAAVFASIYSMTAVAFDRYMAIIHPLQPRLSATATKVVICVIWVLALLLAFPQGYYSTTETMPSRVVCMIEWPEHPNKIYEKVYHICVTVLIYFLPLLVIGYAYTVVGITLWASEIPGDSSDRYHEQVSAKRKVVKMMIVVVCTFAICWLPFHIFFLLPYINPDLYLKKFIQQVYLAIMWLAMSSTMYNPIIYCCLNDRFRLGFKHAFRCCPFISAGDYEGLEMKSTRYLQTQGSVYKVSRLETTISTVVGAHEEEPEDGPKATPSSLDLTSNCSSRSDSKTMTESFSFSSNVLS

[4] = target: T1, Adenosine receptor A3 (Homo sapiens, UniProt P0DMS8); type: cell membranes, CHO-K1, Membrane; conditions: cho-k1;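 further: radioligand binding assay with AB-MECA serving as the labeled ligand; in other assays of this panel Not Active means under 50% inhibition at 10 µM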
T1 sequence (P0DMS8 whole entry): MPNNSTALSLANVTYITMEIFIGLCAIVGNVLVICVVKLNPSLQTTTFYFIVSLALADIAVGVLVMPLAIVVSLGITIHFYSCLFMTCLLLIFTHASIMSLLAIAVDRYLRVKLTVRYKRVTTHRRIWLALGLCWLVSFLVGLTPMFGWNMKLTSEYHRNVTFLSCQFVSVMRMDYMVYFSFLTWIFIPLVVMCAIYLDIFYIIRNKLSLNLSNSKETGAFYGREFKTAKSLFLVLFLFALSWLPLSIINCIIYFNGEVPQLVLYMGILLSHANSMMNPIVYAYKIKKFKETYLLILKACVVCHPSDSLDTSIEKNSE

[5] = target: Adenosine receptor A2a (Homo sapiens, UniProt P29274); test: DRUGMATRIX: Adenosine A2A radioligand binding (ligand: […]); type: cell membranes, HEK293, Membrane; conditions: hek293; Not Active = under 50% inhibition at 10 µM
Chain of Adenosine receptor A2a (P29274 whole entry): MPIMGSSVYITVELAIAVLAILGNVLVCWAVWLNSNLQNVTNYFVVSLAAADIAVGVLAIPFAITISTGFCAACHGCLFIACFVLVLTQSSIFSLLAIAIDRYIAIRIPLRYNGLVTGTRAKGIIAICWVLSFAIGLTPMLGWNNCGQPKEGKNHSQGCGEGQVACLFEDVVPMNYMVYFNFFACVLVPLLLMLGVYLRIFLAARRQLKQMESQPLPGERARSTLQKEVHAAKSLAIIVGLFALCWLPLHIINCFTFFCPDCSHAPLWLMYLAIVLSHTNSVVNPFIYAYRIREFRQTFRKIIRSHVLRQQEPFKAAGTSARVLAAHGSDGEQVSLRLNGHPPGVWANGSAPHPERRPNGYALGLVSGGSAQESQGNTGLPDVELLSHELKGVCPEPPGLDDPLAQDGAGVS

[6] = DRUGMATRIX: Platelet-Derived Growth Factor (PDGF) radioligand binding (ligand: [125I] PDGF); type: cell-based; conditions: nih3t3; Not Active = under 50% inhibition at 10 µM
[7] = target: 5-hydroxytryptamine receptor 1B (Rattus norvegicus, UniProt P28564); type: cell membranes, Wistar, Cerebral cortex, Membrane; further: in other assays of this panel Not Active means under 50% inhibition at 10 µM
Chain of 5-hydroxytryptamine receptor 1B (P28564 whole entry): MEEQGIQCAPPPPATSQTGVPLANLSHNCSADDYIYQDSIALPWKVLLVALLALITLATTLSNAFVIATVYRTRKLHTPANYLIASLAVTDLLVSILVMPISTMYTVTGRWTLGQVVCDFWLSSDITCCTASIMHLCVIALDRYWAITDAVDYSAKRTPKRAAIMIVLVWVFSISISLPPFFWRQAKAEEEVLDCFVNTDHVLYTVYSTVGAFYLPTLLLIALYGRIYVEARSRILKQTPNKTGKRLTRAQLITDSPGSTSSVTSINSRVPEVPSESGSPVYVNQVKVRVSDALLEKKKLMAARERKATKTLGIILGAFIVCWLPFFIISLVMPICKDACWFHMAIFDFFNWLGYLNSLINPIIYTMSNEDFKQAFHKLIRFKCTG

[8] = target: T2, Type-2 angiotensin II receptor (Homo sapiens, UniProt P50052); type: cell-based; conditions: cho-k1; further: in other assays of this panel Not Active means under 50% inhibition at 10 µM
T2 sequence (P50052 whole entry): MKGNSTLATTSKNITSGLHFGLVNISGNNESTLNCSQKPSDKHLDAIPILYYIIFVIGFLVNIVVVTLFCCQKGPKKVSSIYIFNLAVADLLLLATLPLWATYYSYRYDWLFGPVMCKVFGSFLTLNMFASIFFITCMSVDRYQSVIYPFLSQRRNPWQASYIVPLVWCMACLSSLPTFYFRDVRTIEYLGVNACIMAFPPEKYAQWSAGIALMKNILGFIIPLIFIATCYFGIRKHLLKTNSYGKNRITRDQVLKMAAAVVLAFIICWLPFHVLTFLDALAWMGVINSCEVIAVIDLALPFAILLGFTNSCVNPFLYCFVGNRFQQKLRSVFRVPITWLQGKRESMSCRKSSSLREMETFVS

[9] = DRUGMATRIX: GABAA, Muscimol, Central radioligand binding (ligand: [3H] Muscimol); type: cell membranes, Rattus norvegicus, Wistar, Brain, Membrane; conditions: Not Active = under 50% inhibition at 10 µM
[10] = target: Vasopressin V1a receptor (Homo sapiens, UniProt P37288); type: cell membranes, Membrane; conditions: hek293; further: in other assays of this panel Not Active means under 50% inhibition at 10 µM
Chain of Vasopressin V1a receptor (P37288 whole entry): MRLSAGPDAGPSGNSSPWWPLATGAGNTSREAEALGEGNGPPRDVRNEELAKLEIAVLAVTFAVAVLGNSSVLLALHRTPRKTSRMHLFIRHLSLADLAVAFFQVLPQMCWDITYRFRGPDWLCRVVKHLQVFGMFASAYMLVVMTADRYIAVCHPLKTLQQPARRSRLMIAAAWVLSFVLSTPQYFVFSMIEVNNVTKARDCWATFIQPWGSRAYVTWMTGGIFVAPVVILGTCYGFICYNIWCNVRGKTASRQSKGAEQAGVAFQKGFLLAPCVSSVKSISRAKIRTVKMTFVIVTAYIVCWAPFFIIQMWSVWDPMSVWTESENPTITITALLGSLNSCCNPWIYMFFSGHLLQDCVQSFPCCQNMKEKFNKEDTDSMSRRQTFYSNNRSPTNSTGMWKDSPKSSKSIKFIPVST

COc1cc(NS(=O)(=O)c2ccc(N)cc2)nc(OC)n1 [SULFADIMETHOXINE]
Not Active: IC50 [1] | Ki [1] | IC50 [2] | Ki [2] | IC50 [3] | IC50 [4] | IC50 [5] | IC50 [6] | Ki [6] | IC50 [7] | IC50 [8] | IC50 [9] | Ki [9] | IC50 [10]

Cc1cc(C)nc(NS(=O)(=O)c2ccc(N)cc2)n1 [SULFAMETHAZINE]
Not Active: IC50 [1] | Ki [1] | IC50 [2] | Ki [2] | IC50 [3] | IC50 [4] | IC50 [5] | IC50 [6] | Ki [6] | IC50 [7] | IC50 [8] | IC50 [9] | Ki [9] | IC50 [10]

C[C@]1(Cn2ccnn2)[C@H](C(=O)O)N2C(=O)C[C@H]2S1(=O)=O [TAZOBACTAM]
Not Active: IC50 [1] | Ki [1] | IC50 [2] | Ki [2] | IC50 [3] | IC50 [4] | IC50 [5] | IC50 [6] | Ki [6] | IC50 [7] | IC50 [8] | IC50 [9] | Ki [9] | IC50 [10]

CN1C(C(=O)Nc2ccccn2)=C(O)c2sccc2S1(=O)=O [TENOXICAM]
Not Active: IC50 [1] | Ki [1] | IC50 [2] | Ki [2] | IC50 [3] | IC50 [4] | IC50 [5] | IC50 [6] | Ki [6] | IC50 [7] | IC50 [8] | IC50 [9] | Ki [9] | IC50 [10]

CC(C)(C)c1ccc(C(O)CCCN2CCC(C(O)(c3ccccc3)c3ccccc3)CC2)cc1 (configuration not stated) [TERFENADINE]
Not Active: IC50 [1] | Ki [1] | IC50 [2] | Ki [2] | IC50 [3] | IC50 [4] | IC50 [5] | IC50 [6] | Ki [6] | IC50 [7] | IC50 [8] | IC50 [9] | Ki [9] | IC50 [10]

O=C1CCC(N2C(=O)c3ccccc3C2=O)C(=O)N1 (configuration not stated) [THALIDOMIDE]
Not Active: IC50 [1] | Ki [1] | IC50 [2] | Ki [2] | IC50 [3] | IC50 [4] | IC50 [5] | IC50 [6] | Ki [6] | IC50 [7] | IC50 [8] | IC50 [9] | Ki [9] | IC50 [10]

Cc1cccc(Nc2ccncc2S(=O)(=O)NC(=O)NC(C)C)c1 [TORSEMIDE]
Not Active: IC50 [1] | Ki [1] | IC50 [2] | Ki [2] | IC50 [3] | IC50 [4] | IC50 [5] | IC50 [6] | Ki [6] | IC50 [7] | IC50 [8] | IC50 [9] | Ki [9] | IC50 [10]

CC(C)C[C@H](NC(=O)[C@@H](O)[C@H](N)Cc1ccccc1)C(=O)O [UBENIMEX]
Not Active: IC50 [1] | Ki [1] | IC50 [2] | Ki [2] | IC50 [3] | IC50 [4] | IC50 [5] | IC50 [6] | Ki [6] | IC50 [7] | IC50 [8] | IC50 [9] | Ki [9] | IC50 [10]

Cc1onc(-c2ccccc2)c1-c1ccc(S(N)(=O)=O)cc1 [VALDECOXIB]
Not Active: IC50 [1] | Ki [1] | IC50 [2] | Ki [2] | IC50 [3] | IC50 [4] | IC50 [5] | IC50 [6] | Ki [6] | IC50 [7] | IC50 [8] | IC50 [9] | Ki [9] | IC50 [10]

CC[C@]1(O)C[C@@H]2CN(CCc3c([nH]c4ccccc34)[C@@](C(=O)OC)(c3cc4c(cc3OC)N(C)[C@H]3[C@@](O)(C(=O)OC)[C@H](OC(C)=O)[C@]5(CC)C=CCN6CC[C@]43[C@@H]65)C2)C1 [VINBLASTINE]
Not Active: IC50 [1] | Ki [1] | IC50 [2] | Ki [2] | IC50 [3] | IC50 [4] | IC50 [5] | IC50 [6] | Ki [6] | IC50 [7] | IC50 [8] | IC50 [9] | Ki [9] | IC50 [10]

CC(=O)CC(c1ccccc1)c1c(O)c2ccccc2oc1=O (configuration not stated) [WARFARIN]
Not Active: IC50 [1] | Ki [1] | IC50 [2] | Ki [2] | IC50 [3] | IC50 [4] | IC50 [5] | IC50 [6] | Ki [6] | IC50 [7] | IC50 [8] | IC50 [9] | Ki [9] | IC50 [10]

C[C@@H](N)[C@H]1CC[C@H](C(=O)Nc2ccncc2)CC1 [Y-27632]
Not Active: IC50 [1] | Ki [1] | IC50 [2] | Ki [2] | IC50 [3] | IC50 [4] | IC50 [5] | IC50 [6] | Ki [6] | IC50 [7] | IC50 [8] | IC50 [9] | Ki [9] | IC50 [10]

[Cl-].[Cl-].[Zn+2] [ZINC CHLORIDE]
Not Active: IC50 [1] | Ki [1] | IC50 [2] | Ki [2] | IC50 [3] | IC50 [4] | IC50 [5] | IC50 [6] | Ki [6] | IC50 [7] | IC50 [8] | IC50 [9] | Ki [9] | IC50 [10]
